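How tested: cells in 96-well plates exposed to compound for 48 hours at five concentrations. At the GI50, growth is halved.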 Calls of active or inactive are those of the source. No stated cut-off is given here; in the data, active = GI50 up to about 1.1 µM and inactive = higher.
Columns and labels:
Assay in all cases: DTP human tumour cell line panel, 48 h
A549 = system: A549
SNB-19 = system: SNB-19
HCT-15 = system: HCT-15
SK-OV-3 = system: SK-OV-3
HCT-116 = system: HCT-116
OVCAR-5 = system: OVCAR-5
RPMI-8226 = system: RPMI-8226
SK-MEL-28 = system: SK-MEL-28
SK-MEL-2 = system: SK-MEL-2
UACC-257 = system: UACC-257
CAKI-1 = system: CAKI-1
KM12 = system: KM12
HOP-62 = system: HOP-62
EKVX = system: EKVX
LOX IMVI = system: LOX IMVI
UO-31 = system: UO-31
COLO 205 = system: COLO 205
NCI-H460 = system: NCI-H460
MOLT-4 = system: MOLT-4
SK-MEL-5 = system: SK-MEL-5

CC(C)(C)C(=O)N1CCN(C=O)C1=S
GI50 (A549): 27.5 µM (inactive)
GI50 (SNB-19): > 100 µM (inactive)
GI50 (HCT-15): 53.2 µM
GI50 (SK-OV-3): > 100 µM (inactive)
GI50 (HCT-116): > 100 µM (inactive)
GI50 (OVCAR-5): > 100 µM (inactive)
GI50 (RPMI-8226): 24.8 µM (inactive)
GI50 (SK-MEL-28): 50.4 µM (inactive)
GI50 (SK-MEL-2): > 100 µM (inactive)
GI50 (UACC-257): 62.7 µM (inactive)
GI50 (CAKI-1): 34.6 µM (inactive)
GI50 (KM12): 75.9 µM (inactive)
GI50 (HOP-62): > 100 µM (inactive)
GI50 (EKVX): > 100 µM (inactive)
GI50 (LOX IMVI): 34.2 µM (inactive)
GI50 (UO-31): 0.0693 µM (active)
GI50 (COLO 205): > 100 µM (inactive)
GI50 (NCI-H460): > 100 µM (inactive)
GI50 (MOLT-4): 61.5 µM (inactive)

O=C(/C=C/c1ccc2c(c1)OCO2)NCCc1ccco1
GI50 (A549): 89.5 µM (inactive)
GI50 (SNB-19): > 100 µM (inactive)
GI50 (SK-OV-3): > 100 µM (inactive)
GI50 (HCT-116): 68.9 µM (inactive)
GI50 (OVCAR-5): > 100 µM (inactive)
GI50 (RPMI-8226): 21.8 µM (inactive)
GI50 (SK-MEL-28): > 100 µM (inactive)
GI50 (SK-MEL-2): > 100 µM (inactive)
GI50 (UACC-257): 49.8 µM (inactive)
GI50 (CAKI-1): 52.5 µM (inactive)
GI50 (KM12): > 100 µM (inactive)
GI50 (HOP-62): 83.8 µM (inactive)
GI50 (EKVX): 73.3 µM (inactive)
GI50 (LOX IMVI): 78.5 µM (inactive)
GI50 (UO-31): 41 µM (inactive)
GI50 (COLO 205): > 100 µM (inactive)
GI50 (NCI-H460): 69.8 µM (inactive)
GI50 (SK-MEL-5): 23.7 µM (inactive)
GI50 (MOLT-4): 48.9 µM (inactive)

O=C1c2ccccc2S(=O)(=O)c2cc(-c3nn[nH]n3)ccc21 [DOXANTRAZOLE]
GI50 (A549): > 100 µM (inactive)
GI50 (SNB-19): > 100 µM (inactive)
GI50 (HCT-15): > 100 µM
GI50 (SK-OV-3): > 100 µM (inactive)
GI50 (HCT-116): > 100 µM (inactive)
GI50 (OVCAR-5): > 100 µM (inactive)
GI50 (SK-MEL-28): > 100 µM (inactive)
GI50 (SK-MEL-2): > 100 µM (inactive)
GI50 (UACC-257): > 100 µM (inactive)
GI50 (CAKI-1): > 87.3 µM (inactive)
GI50 (KM12): > 100 µM (inactive)
GI50 (HOP-62): > 100 µM (inactive)
GI50 (EKVX): > 100 µM (inactive)
GI50 (LOX IMVI): > 100 µM (inactive)
GI50 (UO-31): > 100 µM (inactive)
GI50 (COLO 205): > 100 µM (inactive)
GI50 (NCI-H460): > 100 µM (inactive)
GI50 (SK-MEL-5): > 100 µM (inactive)
GI50 (MOLT-4): > 100 µM (inactive)

Fc1ccc(C(OCCN2CC3CC2CN3)c2ccc(F)cc2)cc1 (configuration not stated)
GI50 (HCT-15): 60.5 µM
GI50 (SK-OV-3): > 100 µM (inactive)
GI50 (RPMI-8226): 26.1 µM (inactive)
GI50 (SK-MEL-28): 21.8 µM (inactive)
GI50 (SK-MEL-2): 19.1 µM (inactive)
GI50 (UACC-257): 18.3 µM (inactive)
GI50 (CAKI-1): > 100 µM (inactive)
GI50 (KM12): 39.6 µM (inactive)
GI50 (HOP-62): > 100 µM (inactive)
GI50 (LOX IMVI): 50.9 µM (inactive)
GI50 (COLO 205): 18.2 µM (inactive)
GI50 (NCI-H460): 38.9 µM (inactive)
GI50 (SK-MEL-5): 16.4 µM (inactive)
GI50 (MOLT-4): 43.1 µM (inactive)

Nc1ncnc2c1ncn2COC/C=C/I
GI50 (A549): > 100 µM (inactive)
GI50 (SNB-19): > 100 µM (inactive)
GI50 (SK-OV-3): > 100 µM (inactive)
GI50 (HCT-116): > 100 µM (inactive)
GI50 (OVCAR-5): > 100 µM (inactive)
GI50 (RPMI-8226): > 100 µM (inactive)
GI50 (SK-MEL-28): > 100 µM (inactive)
GI50 (SK-MEL-2): > 100 µM (inactive)
GI50 (UACC-257): > 100 µM (inactive)
GI50 (CAKI-1): > 100 µM (inactive)
GI50 (KM12): > 100 µM (inactive)
GI50 (HOP-62): > 100 µM (inactive)
GI50 (EKVX): 77.6 µM (inactive)
GI50 (LOX IMVI): > 100 µM (inactive)
GI50 (UO-31): > 100 µM (inactive)
GI50 (COLO 205): > 100 µM (inactive)
GI50 (NCI-H460): > 100 µM (inactive)
GI50 (SK-MEL-5): > 100 µM (inactive)
GI50 (MOLT-4): > 100 µM (inactive)

COc1c2c(cc3c1OCO3)C13C=CC(OC)CC1N(CC3)C2.[O-][Cl+3]([O-])([O-])O (configuration not stated)
GI50 (A549): > 100 µM (inactive)
GI50 (SNB-19): > 100 µM (inactive)
GI50 (HCT-15): 28.4 µM
GI50 (SK-OV-3): > 100 µM (inactive)
GI50 (HCT-116): > 100 µM (inactive)
GI50 (OVCAR-5): > 100 µM (inactive)
GI50 (RPMI-8226): > 100 µM (inactive)
GI50 (SK-MEL-28): > 100 µM (inactive)
GI50 (SK-MEL-2): > 100 µM (inactive)
GI50 (UACC-257): > 100 µM (inactive)
GI50 (CAKI-1): > 100 µM (inactive)
GI50 (KM12): 51.1 µM (inactive)
GI50 (HOP-62): > 100 µM (inactive)
GI50 (EKVX): > 100 µM (inactive)
GI50 (LOX IMVI): > 100 µM (inactive)
GI50 (UO-31): > 100 µM (inactive)
GI50 (COLO 205): 35.6 µM (inactive)
GI50 (SK-MEL-5): 29 µM (inactive)
GI50 (MOLT-4): 36.4 µM (inactive)

COc1ccc(Oc2nc(C#CC(C)(C)O)nc(Oc3ccc(OC)cc3)n2)cc1
GI50 (A549): 15.1 µM (inactive)
GI50 (SNB-19): 20 µM (inactive)
GI50 (HCT-15): 1.34 µM
GI50 (SK-OV-3): 19.2 µM (inactive)
GI50 (HCT-116): 2.82 µM (inactive)
GI50 (OVCAR-5): 4.72 µM (inactive)
GI50 (SK-MEL-28): 4.9 µM (inactive)
GI50 (SK-MEL-2): 6.73 µM (inactive)
GI50 (UACC-257): 17.9 µM (inactive)
GI50 (CAKI-1): 3.67 µM (inactive)
GI50 (KM12): 14 µM (inactive)
GI50 (HOP-62): 21.8 µM (inactive)
GI50 (EKVX): 16 µM (inactive)
GI50 (LOX IMVI): 1.39 µM (inactive)
GI50 (UO-31): 1.55 µM (inactive)
GI50 (COLO 205): 3.59 µM (inactive)
GI50 (NCI-H460): 16.7 µM (inactive)
GI50 (SK-MEL-5): 14.5 µM (inactive)
GI50 (MOLT-4): 1.53 µM (inactive)

CCP(=O)(CC)C(Cl)(Cl)C(=O)NC
GI50 (A549): > 100 µM (inactive)
GI50 (SNB-19): > 100 µM (inactive)
GI50 (HCT-15): > 100 µM
GI50 (SK-OV-3): > 100 µM (inactive)
GI50 (HCT-116): > 100 µM (inactive)
GI50 (OVCAR-5): > 100 µM (inactive)
GI50 (RPMI-8226): > 100 µM (inactive)
GI50 (SK-MEL-28): > 100 µM (inactive)
GI50 (SK-MEL-2): > 100 µM (inactive)
GI50 (UACC-257): > 100 µM (inactive)
GI50 (CAKI-1): > 100 µM (inactive)
GI50 (HOP-62): > 100 µM (inactive)
GI50 (LOX IMVI): > 100 µM (inactive)
GI50 (UO-31): > 100 µM (inactive)
GI50 (COLO 205): > 100 µM (inactive)
GI50 (NCI-H460): > 100 µM (inactive)
GI50 (SK-MEL-5): > 100 µM (inactive)
GI50 (MOLT-4): > 100 µM (inactive)

CCCCCCCCCCCCCCCCNCCCN(C)CCCN
GI50 (A549): 16.7 µM (inactive)
GI50 (SNB-19): 17.1 µM (inactive)
GI50 (HCT-15): 17.2 µM
GI50 (SK-OV-3): 17.3 µM (inactive)
GI50 (HCT-116): 18.7 µM (inactive)
GI50 (OVCAR-5): 16.4 µM (inactive)
GI50 (RPMI-8226): 20.2 µM (inactive)
GI50 (SK-MEL-28): 13.4 µM (inactive)
GI50 (SK-MEL-2): 20.8 µM (inactive)
GI50 (UACC-257): 22 µM (inactive)
GI50 (CAKI-1): 18.1 µM (inactive)
GI50 (KM12): 18.4 µM (inactive)
GI50 (EKVX): 20.5 µM (inactive)
GI50 (LOX IMVI): 19.9 µM (inactive)
GI50 (UO-31): 17.3 µM (inactive)
GI50 (COLO 205): 22.1 µM (inactive)
GI50 (NCI-H460): 17.7 µM (inactive)
GI50 (SK-MEL-5): 16 µM (inactive)
GI50 (MOLT-4): 28.8 µM (inactive)

CCOC(=O)/C=C(\N=P(c1ccccc1)(c1ccccc1)c1ccccc1)C(F)(F)C(F)(F)C(F)(F)C(F)(F)C(F)(F)F
GI50 (A549): > 100 µM (inactive)
GI50 (SNB-19): > 100 µM (inactive)
GI50 (HCT-15): > 100 µM
GI50 (SK-OV-3): > 100 µM (inactive)
GI50 (HCT-116): > 100 µM (inactive)
GI50 (OVCAR-5): > 100 µM (inactive)
GI50 (RPMI-8226): > 100 µM (inactive)
GI50 (SK-MEL-28): > 100 µM (inactive)
GI50 (SK-MEL-2): > 100 µM (inactive)
GI50 (UACC-257): > 100 µM (inactive)
GI50 (CAKI-1): > 100 µM (inactive)
GI50 (KM12): > 100 µM (inactive)
GI50 (HOP-62): > 100 µM (inactive)
GI50 (LOX IMVI): > 100 µM (inactive)
GI50 (UO-31): > 100 µM (inactive)
GI50 (COLO 205): > 100 µM (inactive)
GI50 (NCI-H460): > 100 µM (inactive)
GI50 (SK-MEL-5): > 100 µM (inactive)
GI50 (MOLT-4): > 100 µM (inactive)

CCCc1onc(CCC(=O)N(Cc2ccccc2)Cc2ccccc2)c1CC
GI50 (HCT-15): > 100 µM
GI50 (SK-OV-3): > 100 µM (inactive)
GI50 (OVCAR-5): > 100 µM (inactive)
GI50 (RPMI-8226): > 100 µM (inactive)
GI50 (SK-MEL-2): > 100 µM (inactive)
GI50 (UACC-257): > 100 µM (inactive)
GI50 (CAKI-1): > 100 µM (inactive)
GI50 (KM12): > 100 µM (inactive)
GI50 (HOP-62): > 100 µM (inactive)
GI50 (LOX IMVI): > 100 µM (inactive)
GI50 (COLO 205): > 100 µM (inactive)
GI50 (NCI-H460): > 100 µM (inactive)
GI50 (MOLT-4): > 100 µM (inactive)

Source: ChEMBL document CHEMBL1201862, “PubChem BioAssay data set” (2004)
